Results published in patent publication US8283368B2, “Selective ligands for the dopamine 3 (D3) receptor and methods of using the same” (The Regents of the University of Michigan, priority 2008, dated 2012).
“Also recorded” adds a separate entry of the source. Where two headings read alike, the source gives them in different places.

Experiments:
Aqueous solubility = format: physicochemical
D2 receptor [1] = molecular target: T1, D2 receptor (Rattus norvegicus, UniProt P61169); assay: In vivo hypothermia assay in rats (D2 agonist activity); parameters: compounds 5, 6, and 12 in yawning and hypothermia assays in rats; from tissue; host or cells: living rats (Harlan), core body temperature read-out; details: for in vivo functional activity at the D2 receptor: concluded from hypothermia in rats; for induction of hypothermia / changes in body temperature: rats, s.c.
Protocol: Recently, in vivo functional assays for the D3 and D2 receptors have been validated. (24,25). […] By employing these validated assays, compounds 5, 6, and 12 were evaluated for their in vivo functional activity at the D3 and D2 receptors.
(§1) Rats were purchased from Harlan (Indianapolis, Ind.) and housed three to a cage for yawning studies, and one to a cage for hypothermia studies. […] Yawning studies were performed as previously described (24,25), with yawning defined as a prolonged (about 1 second), wide opening of the mouth followed by a rapid closure. […] Yawning was recorded for 30 minutes after each injection. […] Yawns and changes in core body temperature are presented as the mean±standard error of the mean (SEM) with 8 (yawning) or 6 (hypothermia) rats per group.

D2 receptor [2] = molecular target: T1, D2 receptor; assay: [3H]Spiperone binding assay for D2-like receptors, rat caudate-putamen membranes; parameters: from tissue; host or cells: rat caudate-putamen membranes; details: for Ki: rat brain
Protocol: (§2) All other Ki values are based on a single-site model.
(§3) Determination of D3 dopamine receptor affinity and selectivity were performed in membranes prepared from the brains of adult, male Sprague-Dawley rats (Harlan Sprague-Dawley, Indianapolis, Ind.). All compounds were dissolved in 100% ethanol at a concentration of 5 mM.
[^3H]Spiperone binding assays. […] Assays were performed using membranes prepared from rat caudate-putamen, which predominantly express the D2 subtype of D2-like receptors, and the final membrane homogenate concentration was 1.5 mg o.w.w./ml. The assay buffer was 50 mM Tris-HCl, 5 mM KCl, 2 mM MgCl2, and 2 mM CaCl2, pH 7.4 at 23° C.; the concentration of [^3H]spiperone (24 Ci/mmol; Amersham) was 0.2 nM; and the incubation time was 90 minutes at 23° C. Nonspecific binding was defined in the presence of 1 μM (+)-butaclamol.

D2 receptor [3] = molecular target: T1, D2 receptor; assay: Alteration of pramipexole induced hypothermia in rats; format: in vivo; parameters: compounds 5, 6, and 12 in yawning and hypothermia assays in rats; from tissue; host or cells: living rats (Harlan), core body temperature read-out; details: rats pretreated with 10.0 or 32.0 mg/kg
Protocol: as §1

D3 receptor = molecular target: T2, D3 receptor (Rattus norvegicus, UniProt P19020); assay: [3H]PD 128907 binding assay for D3 receptors, rat ventral striatum membranes; details: for less potent than compound 6 to the D3 receptor: Ki compared with compound 6; for Selectivity D1-like/D3 / Selectivity D2-like/D3: ratio of Ki values, Table 1
T2 construct: membranes prepared from the brains of adult, male Sprague-Dawley rats; from tissue; host or cells: rat ventral striatum (nucleus accumbens and olfactory tubercles) membranes
Protocol: as §2, §3
Rat ventral striatum (nucleus accumbens and olfactory tubercles) was prepared in assay buffer (50 mM Tris, 1 mM EDTA; pH 7.4 at 23° C.) to yield a final concentration of 10 mg original wet weight (o.w.w.)/ml. […] Nonspecific binding was defined by 1 μM spiperone. Assay tubes were incubated at 23° C. for 3 hours. The reaction was terminated by rapid vacuum filtration.

[4] = molecular target: D1-like dopamine receptors; assay: [3H]SCH 23390 binding assay for D1-like dopamine receptors, rat brain membranes; details: single-site model, read-out: Ki ± SEM D1-like [3H]SCH23390
Protocol: as §2, §3

[5] = background statement on known compounds; cited from earlier work
[6] = single-site model, read-out: Ki ± SEM D2 [3H]Spiperone
[7] = rat brain, single-site model, mean±SEM of three to five determinations, read-out: Ki ± SEM D3 [3H]PD128907
[8] = 2-site fit, high affinity component, read-out: Ki ± SEM D2 [3H]Spiperone, high affinity component (h)
[9] = 2-site fit, low affinity component, read-out: Ki ± SEM D2 [3H]Spiperone, low affinity component (1)

T2 sequence (P19020 whole entry): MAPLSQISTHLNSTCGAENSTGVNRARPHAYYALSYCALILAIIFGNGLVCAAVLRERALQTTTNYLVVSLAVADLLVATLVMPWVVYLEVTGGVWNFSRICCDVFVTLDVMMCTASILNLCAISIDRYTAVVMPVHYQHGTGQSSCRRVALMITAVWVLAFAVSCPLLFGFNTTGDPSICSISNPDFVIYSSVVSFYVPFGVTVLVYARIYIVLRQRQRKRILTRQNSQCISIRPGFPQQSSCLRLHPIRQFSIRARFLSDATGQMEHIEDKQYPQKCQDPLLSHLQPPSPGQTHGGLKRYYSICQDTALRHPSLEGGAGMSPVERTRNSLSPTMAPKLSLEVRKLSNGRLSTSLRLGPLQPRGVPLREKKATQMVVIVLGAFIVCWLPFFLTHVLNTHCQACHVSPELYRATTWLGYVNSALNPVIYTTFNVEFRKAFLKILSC
T1 sequence (P61169 whole entry): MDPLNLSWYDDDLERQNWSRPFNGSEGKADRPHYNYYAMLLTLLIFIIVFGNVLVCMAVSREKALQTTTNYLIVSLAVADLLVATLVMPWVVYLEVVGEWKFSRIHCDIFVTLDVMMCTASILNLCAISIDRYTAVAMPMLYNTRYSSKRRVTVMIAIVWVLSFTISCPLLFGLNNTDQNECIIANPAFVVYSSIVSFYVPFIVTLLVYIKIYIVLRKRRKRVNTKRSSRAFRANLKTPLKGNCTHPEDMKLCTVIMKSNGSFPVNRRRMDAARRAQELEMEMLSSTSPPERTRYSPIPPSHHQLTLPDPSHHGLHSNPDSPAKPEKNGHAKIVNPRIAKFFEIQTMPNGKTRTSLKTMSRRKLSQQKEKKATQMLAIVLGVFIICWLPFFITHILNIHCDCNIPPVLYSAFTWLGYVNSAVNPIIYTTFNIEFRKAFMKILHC

Row | SMILES | aqueous solubility (Aqueous solubility) | in vivo functional activity at the D2 receptor (D2 receptor [1]) | induction of hypothermia / changes in body temperature (D2 receptor [1]) | Ki (D2 receptor [2]; [6]) | Ki (D3 receptor; [7]) | Selectivity D1-like/D3 (D3 receptor) | Selectivity D2-like/D3 (D3 receptor) | Ki [4] | other results
1 | CCCN(CC[C@H]1CC[C@H](NC(=O)C=Cc2ccccc2)CC1)[C@H]1CCc2nc(N)sc2C1 [Compound 12, Trans-N-(4-(2-(((S)-2-amino-4,5,6,7-tetrahydrobenzo[d]thiazol-6-yl)(propyl)amino)ethyl)cyclohexyl)cinnamamide] | good aqueous solubility | no detectable agonist activity at the D2 receptor; also recorded: no detectable agonist or antagonist activity at the D2 receptor | failed to induce changes in body temperature | 330 ± 69 nM |  |  |  |  | effect on induction of hypothermia by pramipexole (D2 receptor [3]): failed to alter the induction of hypothermia by pramipexole
2 | CCCN(CCCCNC(=O)c1ccc2ccccc2c1)[C@H]1CCc2nc(N)sc2C1 [Compound 5, (S)—N-(4-((2-amino-4,5,6,7-tetrahydrobenzo[d]thiazol-6-yl)(propyl)amino)butyl)-2-naphthamide] | good aqueous solubility | full agonist at the D3 and D2 receptors in vivo | hypothermia was induced by compound 5 at higher doses |  | 0.043 ± 0.006 nM |  |  |  | Ki (D2 receptor [2]; [8]): 2.7 ± 0.4 nM; Ki (D2 receptor [2]; [9]): 6700 ± 1500 nM
3 | Nc1nc2c(s1)C[C@@H](NCC[C@H]1CC[C@H](NC(=O)c3ccc4ccccc4c3)CC1)CC2 [Compound 10, Trans-N-(4-(2-((S)-2-amino-4,5,6,7-tetrahydrobenzo[d]thiazol-6-ylamino)ethyl)cyclohexyl)-2-naphthamide] |  |  |  | 670 ± 140 nM | 7.6 nM | >8,000 | 88 | 64000 nM | less potent than compound 6 to the D3 receptor (D3 receptor): 19 times
4 | CCCN[C@H]1CCc2nc(N)sc2C1 [Compound 1, pramipexole, reference compound] |  | D2 agonist at higher doses | induction of hypothermia occurring at higher doses |  |  |  |  | > 100000 nM | 
5 | CCCCN(CC[C@H]1CC[C@H](NC(=O)c2ccc3ccccc3c2)CC1)[C@H]1CCc2nc(N)sc2C1 [Compound 7, Trans-N-(4-(2-(((S)-2-amino-4,5,6,7-tetrahydrobenzo[d]thiazol-6-yl)(butyl)amino)ethyl)cyclohexyl)-2-naphthamide] |  |  |  |  | 0.74 ± 0.083 nM | >7,000 | 74 | 5400 nM | less selectivity for the D3 receptor over the D2 receptor than compound 6 (D3 receptor; D2 high affinity binding component): ~10 fold; Ki (D2 receptor [2]; [8]): 55 ± 12 nM; Ki (D2 receptor [2]; [9]): 1300 ± 180 nM
6 | CC(C)CCN(CC[C@H]1CC[C@H](NC(=O)c2ccc3ccccc3c2)CC1)[C@H]1CCc2nc(N)sc2C1 [Compound 8, Trans-N-(4-(2-(((S)-2-amino-4,5,6,7-tetrahydrobenzo[d]thiazol-6-yl)(isopentyl)amino)ethyl)cyclohexyl)-2-naphthamide] |  |  |  | 345 ± 33 nM | 2.2 ± 0.1 nM | >5,000 | 157 | 13000 nM | less potent than compound 6 to the D3 receptor (D3 receptor): 5 times
7 | CCCN(CC[C@H]1CC[C@H](NC(=O)c2cc3ccccc3o2)CC1)[C@H]1CCc2nc(N)sc2C1 [Compound 11, Trans-N-(4-(2-(((S)-2-amino-4,5,6,7-tetrahydrobenzo[d]thiazol-6-yl)(propyl)amino)ethyl)cyclohexyl)benzofuran-2-carboxamide] |  |  |  | 68 ± 4.6 nM |  |  |  |  | 
8 | CCCN(CC[C@H]1CC[C@H](NC(=O)c2ccc3ccccc3c2)CC1)[C@H]1CCc2nc(N)sc2C1 [Compound 6, Trans-N-(4-(2-(((S)-2-amino-4,5,6,7-tetrahydrobenzo[d]thiazol-6-yl)(propyl)amino)ethyl)cyclohexyl)-2-naphthamide] | good aqueous solubility | no detectable agonist activity at the D2 receptor | failed to induce changes in body temperature |  |  |  |  |  | aqueous solubility (Aqueous solubility; dihydrochloride salt form): greater than 100 mg/ml
9 | Nc1nc2c(s1)C[C@@H](N(CCC1CCCCC1)CC[C@H]1CC[C@H](NC(=O)c3ccc4ccccc4c3)CC1)CC2 [Compound 9, Trans-N-(-4-(2-(((S)-2-amino-4,5,6,7-tetrahydrobenzo[d]thiazol-6-yl)(2-cyclohexylethyl)amino)ethyl)cyclohexyl)-2-naphthamide] |  |  |  | 1200 nM | 23 ± 2.7 nM |  |  |  | less potent than compound 6 to the D2 receptor (D2 receptor [2]; Ki compared with compound 6): 3 times
10 | COc1ccc2c(c1)CCC1CN(CCC3CCC(NC(=O)c4ccc5ccccc5c4)CC3)CCN21 (centres unmarked) [Compound 4, reference compound] |  |  |  | > 10000 nM |  | >5000 | >1000 | > 50000 nM | Ki (D3 receptor): 5.7 ± 0.4 nM; aqueous solubility, known compounds [5]: poor aqueous solubility
